From patent US20240285571A1, “METHODS OF TREATING BONE INFECTIONS” (MICROBION CORPORATION, priority 2020, published 2024)
Like-named read-outs stand apart in the source and are kept apart here.

Key:
[1] = tested on: C. tropicalis; assay: Broth microdilution MIC, yeast (Example 5); assay type: cell-based; conditions: Candida tropicalis, FLUR
Procedure: (§1) Test and Comparator Agents: The test agents were stored at room temperature until assayed. All test agents were suspended and diluted in 100% dimethylsulfoxide (DMSO), and were ultimately tested at a final concentration of 0.06-64 μg/mL. The stock solutions were allowed to stand for at least 1 hr prior to use to auto-sterilize.
(§2) The susceptibility of yeast isolates was determined by broth microdilution in RPMI medium (HyClone Laboratories, Logan, UT; Lot No. AZC184041B) buffered with 0.165 M MOPS (Calbiochem, Billerica, MA; Lot No. 2694962). The pH of the medium was adjusted to 7.0 with 1 N NaOH, sterile filtered using a 0.2 μm PES filter, and stored at 4° C. until used.
(§3) Broth Microdilution MC Testing (Aerobic Bacteria and Yeast): The broth microdilution assay method employed for the susceptibility testing of aerobic bacteria (excluding N. gonorrhoeae which was evaluated by agar dilution) and yeast essentially followed the procedures described by CLSI (3, 4, 7, 8) and employed automated liquid handlers to conduct serial dilutions and liquid transfers. Automated liquid handlers included the Multidrop 384 (Labsystems, Helsinki, Finland) and Biomek 2000 (Beckman Coulter, Fullerton CA). The wells in columns 2-12 in standard 96-well microdilution plates (Costar 3795) were filled with 150 μl of the correct diluent. These would become the ‘mother plates’ from which ‘daughter’ or test plates would be prepared. The drugs (300 μL at 40× the desired top concentration in the test plates) were dispensed into the appropriate well in Column 1 of the mother plates. The Biomek 2000 was used to make serial two-fold dilutions through Column 11 in the “mother plate”. The wells of Column 12 contained no drug and ultimately served as the organism growth control wells.
(§4) The daughter plates were loaded with 185 μL per well of the appropriate test media using the Multidrop 384. The daughter plates were prepared using the Biomek FX which transferred 5 μL of drug solution from each well of a mother plate to the corresponding well of the correct daughter plate in a single step.
(§5) A standardized inoculum of each organism was prepared per CLSI methods (3, 7). Isolated colonies of each test isolate were picked from the primary plate and a suspension was prepared to equal a 0.5 McFarland turbidity standard. Standardized suspensions were then diluted […] (1:100 for yeast, 1:20 for bacteria). After dilution, the inoculum suspensions were then transferred to compartments of sterile reservoirs divided by length (Beckman Coulter), and the Biomek 2000 was used to inoculate all plates. Daughter plates were placed on the Biomek 2000 in reverse orientation so that plates were inoculated from low to high drug concentration.
(§6) The Biomek 2000 delivered 10 μL of standardized inoculum into each well of the appropriate daughter plate for an additional 1:20 dilution. […] The final concentration of DMSO (if used as a solvent) in the test well was 2.5%.
(§7) Plates were stacked 4 high, covered with a lid on the top plate, placed into plastic bags, and incubated at 35° C. for approximately 24-48 hr for all yeast isolates and 16-24 hr for aerobic bacteria. Plates were viewed from the bottom using a plate viewer. […] MIC endpoints for the test agents and control compounds were read per CLSI criteria (3, 7).

[2] = tested on: C. glabrata; assay: Broth microdilution MIC, yeast (Example 5); assay type: cell-based; conditions: Nakaseomyces glabratus, FLUR
Procedure: as §1, §2, §3, §4, §5, §6, §7

[3] = tested on: C. albicans; assay: Broth microdilution MIC, yeast (Example 5); assay type: cell-based; conditions: Candida albicans, Sensitive
Procedure: as §1, §2, §3, §4, §5, §6, §7

[4] = tested on: C. parapsilosis; assay: Broth microdilution MIC, yeast (Example 5); assay type: cell-based; conditions: Lodderomyces parapsilosis
Procedure: as §1, §2, §3, §4, §5, §6, §7

[5] = tested on: enterococci; assay: MIC summary, enterococci (Example 5); assay type: cell-based, E. faecalis and E. faecium; conditions: Enterococcus, VRE (Table 5), read-out: MIC values across isolates
Procedure: as §1
TestMedia: Test media were prepared and stored in accordance with guidelines from CLSI (4, 6, 7). […] Neisseria gonorrhoeae were evaluated by agar dilution using agar consisting of GC medium base (BD; Lot No. 4274618) supplemented with 1% IsoVitaleX (BD; Lot No. 5246843).
Broth Microdilution MC Testing (Aerobic Bacteria and Yeast): The broth microdilution assay method employed for the susceptibility testing of aerobic bacteria (excluding N. gonorrhoeae which was evaluated by agar dilution) and yeast essentially followed the procedures described by CLSI (3, 4, 7, 8) and employed automated liquid handlers to conduct serial dilutions and liquid transfers. […]
Plates were stacked 4 high, covered with a lid on the top plate, placed into plastic bags, and incubated at 35° C. for approximately 24-48 hr for all yeast isolates and 16-24 hr for aerobic bacteria. […] MIC endpoints for the test agents and control compounds were read per CLSI criteria (3, 7).

[6] = tested on: B. fragilis; assay: Agar dilution MIC, anaerobes (Example 5); assay type: cell-based; conditions: Bacteroides fragilis, ATCC25285
[7] = tested on: S. aureus; assay: Broth microdilution MIC (Example 5); assay type: cell-based, Staphylococcus aureus; conditions: Staphylococcus aureus
Outline: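 Endpoints are read from the plate bottom per CLSI criteria after 16-24 hr at 35° C. The isolates are tested by broth microdilution against two-fold drug dilution series, with inocula standardized to a 0.5 McFarland suspension.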

[8] = 24 h, C. parapsilosis MMX 7370, FLUR
[9] = 24 h, C. parapsilosis MMX 7555, FLUR
[10] = 48 h, C. parapsilosis MMX 7370, FLUR
[11] = 48 h, C. parapsilosis MMX 7555, FLUR
[12] = ATCC22019, 24 h, C. parapsilosis MMX 2323 (ATCC 22019), QC, 24 hr
[13] = ATCC22019, 48 h, C. parapsilosis MMX 2323 (ATCC 22019), QC, 48 hr
[14] = ATCC 29213 / MSSA, S. aureus MMX 101 (ATCC 29213), QC, MSSA

| SMILES | MIC ([1]; 24 h, C. tropicalis MMX 7247) [mg/L] | MIC ([1]; 24 h, C. tropicalis MMX 7248) [mg/L] | MIC ([1]; 24 h, C. tropicalis MMX 7360) [mg/L] | MIC ([1]; 48 h, C. tropicalis MMX 7247) [mg/L] | MIC ([1]; 48 h, C. tropicalis MMX 7248) [mg/L] | MIC ([1]; 48 h, C. tropicalis MMX 7360) [mg/L] | MIC ([2]; 24 h, C. glabrata MMX 7086) [mg/L] | MIC ([2]; 24 h, C. glabrata MMX 7318) [mg/L] | MIC ([2]; 48 h, C. glabrata MMX 7086) [mg/L] | MIC ([2]; 48 h, C. glabrata MMX 7318) [mg/L] | MIC ([3]; 24 h, C. albicans MMX 7055) [mg/L] | MIC ([3]; 48 h, C. albicans MMX 7039) [mg/L] | MIC ([3]; 48 h, C. albicans MMX 7055) [mg/L] | MIC [4, 8] [mg/L] | MIC [4, 9] [mg/L] | MIC [4, 10] [mg/L] | MIC [4, 11] [mg/L] | MIC [4, 12] [mg/L] | MIC [4, 13] [mg/L] | MIC [5] [mg/L] | further results |
| --- | --- | --- | --- | --- | --- | --- | --- | --- | --- | --- | --- | --- | --- | --- | --- | --- | --- | --- | --- | --- | --- |
| OCC(S)CS.[Bi] (stereo not shown) [MB-2B, bismuth-2,3-dimercaptopropanol] | 2 | 4 | 1 | 4 | 4 | 2 | 0.5 | 0.25 | 1 | 1 | 1 | 2 | 4 | 0.5 | 0.25 | 0.5 | 1 | 0.5 | 1 | 2 to 4 | MIC ([3]; 24 h, C. albicans MMX 7039): 2 mg/L; MIC [6]: 8 mg/L; MIC [7, 14]: 0.5 mg/L; MIC ([7]; MRSA, S. aureus MMX 5373): ≤ 0.06 mg/L; MIC ([7]; MRSA, S. aureus MMX 6311): ≤ 0.06 mg/L; MIC ([7]; MRSA, S. aureus MMX 9203): 0.25 mg/L; MIC ([7]; MRSA, S. aureus MMX 9204): ≤ 0.06 mg/L; MIC ([7]; MRSA, S. aureus MMX 9205): ≤ 0.06 mg/L; MIC ([7]; MRSA, read-out: MIC values against MRSA, MRSA isolates (Table 5)): < 0.06 mg/L |
| CC(S)C(C)S.[Bi] (stereo not shown) [MB-6, bismuth-2,3-butanedithiol] | 4 | 4 | 2 | 4 | 8 | 2 | 0.5 | 0.25 | 1 | 0.5 | 2 | 2 | 2 | 0.25 | 0.25 | 0.5 | 0.5 | 0.5 | 1 | 0.25 to 1 | MIC [6]: 1 mg/L; MIC [7, 14]: ≤ 0.06 mg/L; MIC ([7]; MRSA, S. aureus MMX 5373): ≤ 0.06 mg/L; MIC ([7]; MRSA, S. aureus MMX 6311): ≤ 0.06 mg/L; MIC ([7]; MRSA, S. aureus MMX 9204): ≤ 0.06 mg/L; MIC ([7]; MRSA, S. aureus MMX 9205): ≤ 0.06 mg/L |
